In patent US11242334B2, “Heterocyclic compounds as kinase inhibitors, compositions comprising the heterocyclic compound, and methods of use thereof” (JS INNOPHARM (SHANGHAI) LTD, priority 2017, dated 2022):

What was measured:
human ERK2 = molecular target: T1, human ERK2 (Homo sapiens, UniProt P28482); assay: LanthaScreen TR-FRET enzymatic assay, ERK2; settings: IC50 values of ERK2 biochemical activity; 5 μM ATP, 400 nM ATF2-GFP substrate
T1 construct: recombinantly expressed as GST-tagged full-length protein purified from E. coli; GST; purchased Invitrogen PV3311; host or cells: E. coli
T1 sequence (P28482 whole entry): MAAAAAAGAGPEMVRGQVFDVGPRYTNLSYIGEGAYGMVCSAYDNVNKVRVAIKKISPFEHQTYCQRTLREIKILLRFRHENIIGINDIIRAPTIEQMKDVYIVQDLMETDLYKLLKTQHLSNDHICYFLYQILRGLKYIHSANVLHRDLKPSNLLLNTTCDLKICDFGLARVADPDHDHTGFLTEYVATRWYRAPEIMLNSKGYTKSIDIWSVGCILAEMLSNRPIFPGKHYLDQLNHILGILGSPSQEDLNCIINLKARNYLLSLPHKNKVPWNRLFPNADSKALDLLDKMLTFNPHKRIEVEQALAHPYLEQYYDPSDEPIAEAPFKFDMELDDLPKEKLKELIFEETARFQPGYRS
Experimental: Compounds were tested in a LanthaScreen™ time-resolved fluorescence energy transfer (TR-FRET) enzymatic assay from Invitrogen. The assay used human ERK2 (Mitogen Activated Kinase 1, Invitrogen, Cat. PV3311) recombinantly expressed as GST-tagged full-length protein purified from E. coli and activated in vitro with MAP2K1. The substrate was a recombinant truncated version (residues 19-96) of ATF2 fused with Green Fluorescent Protein (Invitrogen, Cat. PV4445). Test compounds were prepared and diluted in DMSO in 3-fold serial dilutions to 100× of the final testing concentrations. The compounds were then further diluted to 4× by the kinase reaction buffer (Invitrogen, Cat. PV3189). The enzymatic reaction for compound testing was performed in a white 384-well polypropylene plate (Packard, Cat. 6005214) with a total reaction volume of 10 μl containing 20 ng/ml ERK2, 400 nM substrate, and 5 μM ATP that is around its Km. The assay started with loading 2.5 μl of ERK2 diluted in kinase reaction buffer to wells, followed by addition of equal volume of 4× compounds for 15-min incubation at the room temperature for pre-treatment. The enzymatic reaction was initiated by addition of 5 μl of mixture of the substrate and ATP prepared in kinase reaction buffer. After one hour reaction, 10 μl mixture of EDTA (final 10 mM) and terbium-labeled anti-pATF2 (pThr71) antibody (final 2 nM) (Invitrogen, Cat. PV4451) prepared in TR-FRET antibody dilution buffer (Invitrogen, Cat. PV3574) was added to stop the enzymatic reaction and produce TR-FRET signals. After 30 minutes of incubation at room temperature, the plate was read in Tecan Infinite F200 Pro with the following settings: Excitation 340 nm (30)/Emission1 495 nm (10)/Emission2 520 nm (25). The TR-FRET values were dimensionless numbers that were calculated as the ratio of the acceptor ([…]) signal to the donor (Terbium) signal. Percent of control was calculated as the percentage of compound-treated vs 1% DMSO vehicle-treated. The dose-response curves were generated and the ICsos were calculated by nonlinear sigmoid curve fitting using GraphPad Prism.
The IC50 values of ERK2 biochemical activity for the examples disclosed herein are listed in Table 3, A: ≤10 nM; B: >10 nM and ≤50 nM; C: >50 nM and ≤100 nM; D.>100 nM.

Colo205 cell line = assay: Colo205 cell proliferation assay (MTT assay, WST-8 readout); format: cell-based; settings: Homo sapiens; IC50 values of growth inhibition in Colo 205 cells; 72 hours
How it was run: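 Growth-inhibition IC50 was derived from WST-8 absorbance at 450 nm (2 h development) after 72 h compound exposure at 37° C. Exposure used final 50 μM–0.005 μM compound in 0.5% DMSO. Colo205 cells had been plated at 5,000/well in RPMI-1640 plus 10% FBS and allowed 24 h to attach.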

## CC(C)Oc1ccc(-c2n[nH]c3ccc(-c4ccn([C@H](CO)c5cccc(Br)c5)c(=O)c4)cc23)cn1 [Example 44, (S)-1-(1-(3-bromophenyl)-2-hydroxyethyl)-4-(3-(6-isopropoxypyridin-3-yl)-1H-indazol-5-yl)pyridin-2(1H)-one]
Human ERK2
  IC50: < 10 nM
Colo205 cell line
  IC50: 500 to 1000 nM

## Cn1cc(-c2n[nH]c3ccc(-c4ccn([C@H](CO)c5cccc(Br)c5)c(=O)c4)cc23)cn1 [Example 45, (S)-1-(1-(3-bromophenyl)-2-hydroxyethyl)-4-(3-(1-methyl-1H-pyrazol-4-yl)-1H-indazol-5-yl)pyridin-2(1H)-one]
Human ERK2
  IC50: < 10 nM
Colo205 cell line
  IC50: ≤ 500 nM

## Cn1cc(-c2n[nH]c3ccc(-c4ccn([C@H](CO)c5ccc(F)c(Br)c5)c(=O)c4)cc23)cn1 [Example 46, (S)-1-(1-(3-bromo-4-fluorophenyl)-2-hydroxyethyl)-4-(3-(1-methyl-1H-pyrazol-4-yl)-1H-indazol-5-yl)pyridin-2(1H)-one]
Human ERK2
  IC50: < 10 nM
Colo205 cell line
  IC50: ≤ 500 nM

## Cn1cc(-c2n[nH]c3ccc(-c4ccn([C@H](CO)c5cccc(I)c5)c(=O)c4)cc23)cn1 [Example 47, (S)-1-(2-hydroxy-1-(3-iodophenyl)ethyl)-4-(3-(1-methyl-1H-pyrazol-4-yl)-1H-indazol-5-yl)pyridin-2(1H)-one]
Human ERK2
  IC50: < 10 nM
Colo205 cell line
  IC50: ≤ 500 nM

## CC(C)Oc1ccc(-c2n[nH]c3ccc(-c4ccn([C@H](CO)c5cccc(I)c5)c(=O)c4)cc23)cn1 [Example 48, (S)-1-(2-hydroxy-1-(3-iodophenyl)ethyl)-4-(3-(6-isopropoxypyridin-3-yl)-1H-indazol-5-yl)pyridin-2(1H)-one]
Human ERK2
  IC50: < 10 nM
Colo205 cell line
  IC50: 500 to 1000 nM

## Cc1cc(-c2n[nH]c3ccc(-c4ccn([C@H](CO)c5cccc(I)c5)c(=O)c4)cc23)ccn1 [Example 49, (S)-1-(2-hydroxy-1-(3-iodophenyl)ethyl)-4-(3-(2-methylpyridin-4-yl)-1H-indazol-5-yl)pyridin-2(1H)-one]
Human ERK2
  IC50: < 10 nM
Colo205 cell line
  IC50: ≤ 500 nM

## O=c1cc(-c2ccc3[nH]nc(-c4cnn(C5CC5)c4)c3c2)ccn1[C@H](CO)c1ccc(F)c(Cl)c1 [Example 50, (S)-1-(1-(3-chloro-4-fluorophenyl)-2-hydroxyethyl)-4-(3-(1-cyclopropyl-1H-pyrazol-4-yl)-1H-indazol-5-yl)pyridin-2(1H)-one]
Human ERK2
  IC50: < 10 nM
Colo205 cell line
  IC50: 500 to 1000 nM

## O=c1cc(-c2ccc3[nH]nc(-c4cnn(C(F)F)c4)c3c2)ccn1[C@H](CO)c1ccc(F)c(Cl)c1 [Example 51, (S)-1-(1-(3-chloro-4-fluorophenyl)-2-hydroxyethyl)-4-(3-(1-(difluoromethyl)-1H-pyrazol-4-yl)-1H-indazol-5-yl)pyridin-2(1H)-one]
Human ERK2
  IC50: < 10 nM
Colo205 cell line
  IC50: ≤ 500 nM

## COCCn1cc(-c2n[nH]c3ccc(-c4ccn([C@H](CO)c5ccc(F)c(Cl)c5)c(=O)c4)cc23)cn1 [Example 52, (S)-1-(1-(3-chloro-4-fluorophenyl)-2-hydroxyethyl)-4-(3-(1-(2-methoxyethyl)-1H-pyrazol-4-yl)-1H-indazol-5-yl)pyridin-2(1H)-one]
Human ERK2
  IC50: < 10 nM
Colo205 cell line
  IC50: 1000 to 5000 nM

## Cc1cc(-c2n[nH]c3ccc(-c4ccn(Cc5cccc(Cl)c5)c(=O)c4)cc23)ccn1 [Example 53, 1-(3-chlorobenzyl)-4-(3-(2-methylpyridin-4-yl)-1H-indazol-5-yl)pyridin-2(1H)-one]
Human ERK2
  IC50: < 10 nM
Colo205 cell line
  IC50: 500 to 1000 nM

## Cc1cc(-c2n[nH]c3ccc(-c4ccn(Cc5cc(Br)ccc5F)c(=O)c4)cc23)ccn1 [Example 55, 1-(5-bromo-2-fluorobenzyl)-4-(3-(2-methylpyridin-4-yl)-1H-indazol-5-yl)pyridin-2(1H)-one]
Human ERK2
  IC50: < 10 nM
Colo205 cell line
  IC50: ≤ 500 nM

## Cc1cc(-c2n[nH]c3ccc(-c4ccn(Cc5ccc(F)c(Br)c5)c(=O)c4)cc23)ccn1 [Example 56, 1-(3-bromo-4-fluorobenzyl)-4-(3-(2-methylpyridin-4-yl)-1H-indazol-5-yl)pyridin-2(1H)-one]
Human ERK2
  IC50: < 10 nM
Colo205 cell line
  IC50: 500 to 1000 nM

## Cc1cc(-c2n[nH]c3ccc(-c4ccn(Cc5cccc(I)c5)c(=O)c4)cc23)ccn1 [Example 57, 1-(3-iodobenzyl)-4-(3-(2-methylpyridin-4-yl)-1H-indazol-5-yl)pyridin-2(1H)-one]
Human ERK2
  IC50: < 10 nM
Colo205 cell line
  IC50: ≤ 500 nM

## Cc1cc(-c2n[nH]c3ccc(-c4ccn(Cc5cc(F)cc(Cl)c5)c(=O)c4)cc23)ccn1 [Example 58, 1-(3-chloro-5-fluorobenzyl)-4-(3-(2-methylpyridin-4-yl)-1H-indazol-5-yl)pyridin-2(1H)-one]
Human ERK2
  IC50: < 10 nM
Colo205 cell line
  IC50: 500 to 1000 nM

## Cc1cc(-c2n[nH]c3ccc(-c4ccn(Cc5ccccc5C(F)(F)F)c(=O)c4)cc23)ccn1 [Example 59, 4-(3-(2-methylpyridin-4-yl)-1H-indazol-5-yl)-1-(2-(trifluoromethyl)benzyl)pyridin-2(1H)-one]
Human ERK2
  IC50: < 10 nM
Colo205 cell line
  IC50: 1000 to 5000 nM

## Cc1cc(-c2n[nH]c3ccc(-c4ccn(Cc5ccccc5)c(=O)c4)cc23)ccn1 [Example 60, 1-benzyl-4-(3-(2-methylpyridin-4-yl)-1H-indazol-5-yl)pyridin-2(1H)-one]
Human ERK2
  IC50: < 10 nM
Colo205 cell line
  IC50: 500 to 1000 nM

## Cc1cc(-c2n[nH]c3ccc(-c4ccn(Cc5ccc(F)c(F)c5)c(=O)c4)cc23)ccn1 [Example 61, 1-(3,4-difluorobenzyl)-4-(3-(2-methylpyridin-4-yl)-1H-indazol-5-yl)pyridin-2(1H)-one]
Human ERK2
  IC50: < 10 nM
Colo205 cell line
  IC50: 500 to 1000 nM

## Cc1cc(-c2n[nH]c3ccc(-c4ccn(Cc5ccc(Cl)c(F)c5)c(=O)c4)cc23)ccn1 [Example 62, 1-(4-chloro-3-fluorobenzyl)-4-(3-(2-methylpyridin-4-yl)-1H-indazol-5-yl)pyridin-2(1H)-one]
Human ERK2
  IC50: < 10 nM
Colo205 cell line
  IC50: 500 to 1000 nM

## Cc1cc(-c2n[nH]c3ccc(-c4ccn(Cc5cccc(Cl)c5F)c(=O)c4)cc23)ccn1 [Example 63, 1-(3-chloro-2-fluorobenzyl)-4-(3-(2-methylpyridin-4-yl)-1H-indazol-5-yl)pyridin-2(1H)-one]
Human ERK2
  IC50: < 10 nM
Colo205 cell line
  IC50: 500 to 1000 nM

## Cc1cc(-c2n[nH]c3ccc(-c4ccn(Cc5ccc(C#N)cc5)c(=O)c4)cc23)ccn1 [Example 64, 4-((4-(3-(2-methylpyridin-4-yl)-1H-indazol-5-yl)-2-oxopyridin-1(2H)-yl)methyl)benzonitrile]
Human ERK2
  IC50: < 10 nM
Colo205 cell line
  IC50: 1000 to 5000 nM

## Cc1cc(-c2n[nH]c3ccc(-c4ccn(Cc5ccc(F)c(Cl)c5)c(=O)c4)cc23)ccn1 [Example 65, 1-(3-chloro-4-fluorobenzyl)-4-(3-(2-methylpyridin-4-yl)-1H-indazol-5-yl)pyridin-2(1H)-one]
Human ERK2
  IC50: < 10 nM
Colo205 cell line
  IC50: 500 to 1000 nM

## Cc1cc(-c2n[nH]c3ccc(-c4ccn(Cc5cc(Cl)ccc5F)c(=O)c4)cc23)ccn1 [Example 66]
Human ERK2
  IC50: < 10 nM
Colo205 cell line
  IC50: 500 to 1000 nM

## Cc1cc(-c2n[nH]c3ccc(-c4ccn(Cc5cccc(OC(F)(F)F)c5)c(=O)c4)cc23)ccn1 [Example 67, 4-(3-(2-methylpyridin-4-yl)-1H-indazol-5-yl)-1-(3-(trifluoromethoxy)benzyl)pyridin-2(1H)-one]
Human ERK2
  IC50: < 10 nM
Colo205 cell line
  IC50: 1000 to 5000 nM

## Cc1cc(-c2n[nH]c3ccc(-c4ccn(Cc5cccc(F)c5)c(=O)c4)cc23)ccn1 [Example 68, 1-(3-fluorobenzyl)-4-(3-(2-methylpyridin-4-yl)-1H-indazol-5-yl)pyridin-2(1H)-one]
Human ERK2
  IC50: < 10 nM
Colo205 cell line
  IC50: 1000 to 5000 nM

## Cc1cc(-c2n[nH]c3ccc(-c4ccn(Cc5ccc(Br)c(F)c5)c(=O)c4)cc23)ccn1 [Example 69, 1-(4-bromo-3-fluorobenzyl)-4-(3-(2-methylpyridin-4-yl)-1H-indazol-5-yl)pyridin-2(1H)-one]
Human ERK2
  IC50: < 10 nM
Colo205 cell line
  IC50: 500 to 1000 nM

## Cc1cc(-c2n[nH]c3ccc(-c4ccn(Cc5cccc(C(F)(F)F)c5)c(=O)c4)cc23)ccn1 [Example 70, 4-(3-(2-methylpyridin-4-yl)-1H-indazol-5-yl)-1-(3-(trifluoromethyl)benzyl)pyridin-2(1H)-one]
Human ERK2
  IC50: < 10 nM
Colo205 cell line
  IC50: 500 to 1000 nM
